{"source": "patent EP2948433B1", "about": "“ATGLISTATIN AS LIPASE INHIBITOR” (Technische Universität Graz, priority 2013, dated 2014)", "key": {"[1]": {"test_system": "TG hydrolase activity of wild-type WAT", "experiment": "TG hydrolase activity in WAT lysates of wild-type mice", "assay_type": "biochemical", "details": "up to, at a concentration of 40 µM", "experimental": "For determination of lipase activity, lysates of E. coli overexpressing recombinant strep-tagged ATGL and CGI-58 were incubated with a substrate containing radiolabeled [9,10-3H(N)]-triolein. Subsequently, FA were extracted and quantified by liquid scintillation counting. Lysates of cells expressing empty vector were set as blank. Inhibitors were solubilized in DMSO and added at the indicated concentrations. DMSO alone was used as negative control. […] Data are presented as mean +/-S.D. of triplicate determinations. […] Lipase activity of ATGL, HSL, lipoprotein lipase, and pancreatic lipase was determined using triolein as substrate. MGL activity was detected in the presence of rac-(1,3)-monooleoylglycerol as substrate. Inhibitors were solubilized in DMSO and added at the indicated concentrations. DMSO alone was used as negative control. (A) Dose-dependent inhibition of TG hydrolase activity in WAT lysates obtained from wild-type and ATGL-ko mice."}, "[2]": {"target": "T1, purified bovine LPL (Bos taurus, UniProt P11151)", "T1 construct": "purchased Sigma", "T1 sequence (P11151 29-478)": "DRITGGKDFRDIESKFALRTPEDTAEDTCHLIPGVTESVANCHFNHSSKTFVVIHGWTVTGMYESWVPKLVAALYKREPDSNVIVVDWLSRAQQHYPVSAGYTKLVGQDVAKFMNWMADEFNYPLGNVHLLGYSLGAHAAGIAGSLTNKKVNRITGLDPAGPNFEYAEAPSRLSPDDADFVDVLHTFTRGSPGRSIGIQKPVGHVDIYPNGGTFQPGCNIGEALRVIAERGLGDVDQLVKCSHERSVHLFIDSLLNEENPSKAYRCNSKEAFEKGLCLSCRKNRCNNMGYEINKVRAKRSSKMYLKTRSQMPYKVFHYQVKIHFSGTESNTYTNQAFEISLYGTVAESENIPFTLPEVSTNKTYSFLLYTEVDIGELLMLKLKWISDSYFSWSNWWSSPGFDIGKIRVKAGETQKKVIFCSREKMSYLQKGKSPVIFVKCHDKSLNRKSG", "experiment": "Lipoprotein lipase activity, purified enzyme, triolein substrate", "assay_type": "biochemical", "details": "Fig. 2D", "procedure": "(§1) • Figure 1. Structure of compounds 1 to 3 (reference) and compound 4 (atglistatin) and effect on ATGL activity. For determination of lipase activity, lysates of E. coli overexpressing recombinant strep-tagged ATGL and CGI-58 were incubated with a substrate containing radiolabeled [9,10-3H(N)]-triolein. Subsequently, FA were extracted and quantified by liquid scintillation counting. Lysates of cells expressing empty vector were set as blank. Inhibitors were solubilized in DMSO and added at the indicated concentrations. DMSO alone was used as negative control. (A) Structure and IC50 values of compounds 1-4. (B) Dose-dependent inhibition of ATGL in the presence of compound 3 and 4. […] (C) Lineweaver-Burk plots for kinetic analysis of ATGL inhibition. Experiments were performed at varying concentrations of substrate (0.05 - 3 mM) in presence and absence of compound 4 (Atglistatin). […] Lipase activity of ATGL, HSL, lipoprotein lipase, and pancreatic lipase was determined using triolein as substrate. MGL activity was detected in the presence of rac-(1,3)-monooleoylglycerol as substrate. […] The release of FA (A) and glycerol (B) in the media was determined using commercial kits. […] At the indicated timepoints blood was taken retroorbitally and plasma parameters were measured using commercial kits. […] 8 h after gavage blood was taken retroorbitally and plasma parameters were measured using commercial kits. […]"}, "[3]": {"target": "T2, pancreatic lipase (Sus scrofa, UniProt P00591)", "T2 construct": "pancreatic lipase (from porcine pancreas, Sigma); purchased Sigma; host or cells: porcine pancreas", "T2 sequence (P00591 1-450)": "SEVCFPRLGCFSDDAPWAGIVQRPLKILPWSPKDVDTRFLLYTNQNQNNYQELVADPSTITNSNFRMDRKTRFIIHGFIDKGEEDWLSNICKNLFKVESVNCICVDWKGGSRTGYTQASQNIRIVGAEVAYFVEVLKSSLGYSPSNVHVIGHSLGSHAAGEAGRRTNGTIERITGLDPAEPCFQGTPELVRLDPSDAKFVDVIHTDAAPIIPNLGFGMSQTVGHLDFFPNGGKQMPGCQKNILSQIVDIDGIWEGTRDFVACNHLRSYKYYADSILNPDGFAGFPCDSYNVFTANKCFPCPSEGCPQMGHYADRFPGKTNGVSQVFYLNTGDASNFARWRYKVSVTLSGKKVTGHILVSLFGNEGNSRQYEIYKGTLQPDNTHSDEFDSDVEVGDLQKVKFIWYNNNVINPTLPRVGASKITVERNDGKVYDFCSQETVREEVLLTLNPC", "experiment": "Pancreatic lipase activity, triolein substrate", "assay_type": "biochemical, porcine", "details": "Fig. 2D", "procedure": "as §1"}, "[4]": {"experiment": "Inhibition of lipolysis in vivo, oral gavage in fasted mice, plasma parameters", "parameters": "species or system C57BI/6J mice", "procedure": "• Figure 1. Structure of compounds 1 to 3 (reference) and compound 4 (atglistatin) and effect on ATGL activity. For determination of lipase activity, lysates of E. coli overexpressing recombinant strep-tagged ATGL and CGI-58 were incubated with a substrate containing radiolabeled [9,10-3H(N)]-triolein. Subsequently, FA were extracted and quantified by liquid scintillation counting. Lysates of cells expressing empty vector were set as blank. Inhibitors were solubilized in DMSO and added at the indicated concentrations. DMSO alone was used as negative control. (A) Structure and IC50 values of compounds 1-4. (B) Dose-dependent inhibition of ATGL in the presence of compound 3 and 4. […] (C) Lineweaver-Burk plots for kinetic analysis of ATGL inhibition. Experiments were performed at varying concentrations of substrate (0.05 - 3 mM) in presence and absence of compound 4 (Atglistatin). […] Data are presented as mean +/-S.D. of triplicate determinations. Data for compound 4 are representative for at least three independent experiments. • Figure 2. Selectivity of Atglistatin. Lipase activity of ATGL, HSL, lipoprotein lipase, and pancreatic lipase was determined using triolein as substrate. MGL activity was detected in the presence of rac-(1,3)-monooleoylglycerol as substrate. Inhibitors were solubilized in DMSO and added at the indicated concentrations. DMSO alone was used as negative control. (A) Dose-dependent inhibition of TG hydrolase activity in WAT lysates obtained from wild-type and ATGL-ko mice. (B) Inhibition of TG hydrolase activity in wild-type WAT lysates by Atglistatin (40 µM) and by the HSL inhibitor Hi 76-0079 (20 µM). (C) Effect of Atglistatin on murine MGL (purified from E. coli), and murine HSL (overexpressed in COS-7 lysates) activity. (D) Effect of Atglistatin on purified bovine LPL (Sigma) and pancreatic lipase (from porcine pancreas, Sigma). Data are presented as mean +/- S.D. of triplicate determinations and are representative for at least three independent experiments (p < 0.05 **, p < 0.01; ***, p < 0.001). • Figure 3 Inhibition of lipolysis in 3T3-L1 adipocytes and WAT organ cultures. (A,B) Differentiated 3T3 cells were preincubated with the indicated concentrations of Atglistatin. Thereafter, the medium was replaced by DMEM containing 2% BSA (fatty acid free), 10 µM forskolin, in the presence or absence of inhibitors. The release of FA (A) and glycerol (B) in the media was determined using commercial kits. Basal FA and glycerol release (not shown) was barely detectable under the applied conditions. Data are presented as mean +/- SD and are representative for 2 independent experiments. (C-F) Effect of Atglistatin on WAT basal (C, D) and forskolin-stimulated (E, F) lipolysis. Adipose tissue pieces (∼15 mg, n=5 for each concentration) of wild-type mice were cultured for 8 h in DMEM containing 2 % FA-free BSA and the indicated concentrations of Atglistatin. Subsequently, the medium was replaced by identical fresh medium and samples were collected after incubation for another hour in the presence or in the absence of 10 µM forskolin. Atglistatin was solubilized in DMSO and DMSO alone was used as negative control. Data are presented as mean +/- S.D. (*, p < 0.05 **, p < 0.01; ***, p < 0.001). • Figure 4 Inhibition of lipolysis in vivo. (A,B) Time dependent effect of Atglistatin on plasma free fatty acids (FFA) and glycerol levels of mice. C57BI6 mice were fasted overnight (ON) and received an oral gavage containing 100 µmol/kg Atglistatin dissolved in olive oil, or olive oil as control. At the indicated timepoints blood was taken retroorbitally and plasma parameters were measured using commercial kits. (C,D) Dose dependent effect of Atglistatin on plasma FFA and glycerol levels of mice. C57BI6 mice were fasted ON and received an oral gavage containing 0, 50, 100, or 200 µmol/kg Atglistatin dissolved in olive oil, or olive oil as control. 8 h after gavage blood was taken retroorbitally and plasma parameters were measured using commercial kits. […]"}, "[5]": {"details": "plasma, 200 µmol/kg oral gavage, after 8 h, mean ± S.D., n = 7"}, "[6]": {"details": "up to, 50, 100 or 200 µmol/kg oral gavage, 8 h after gavage"}}, "note": "Marks after values point to notes of the source that are not given here.", "data": [{"smiles": "CN(C)C(=O)Nc1cccc(-c2ccc(N(C)C)cc2)c1", "note": "[Atglistatin, atglistatin]", "values": [{"measurement": "inhibition of TG hydrolase activity of wild-type WAT", "setting": "[1]", "value": "up to 78%"}, {"measurement": "effect on lipoprotein lipase", "setting": "[2]", "value": "only minor effects"}, {"measurement": "effect on pancreatic lipase", "setting": "[3]", "value": "only minor effects"}, {"measurement": "plasma levels for glycerol, time course", "setting": "[4]; 100 µmol/kg oral gavage in olive oil, between 4 h and 8 h after gavage", "value": "time dependent decrease"}, {"measurement": "plasma levels for FA, time course", "setting": "[4]; 100 µmol/kg oral gavage in olive oil, between 4 h and 12 h after gavage", "value": "time dependent decrease"}, {"measurement": "FFA", "setting": "[4]; [5]", "value": "0.53 ± 0.05*** mmol/L"}, {"measurement": "Triglycerides", "setting": "[4]; [5]", "value": "0.33 ± 0.14** mmol/L"}, {"measurement": "dose-dependent decrease in plasma FA levels", "setting": "[4]; [6]", "value": "up to 50%"}, {"measurement": "dose-dependent decrease in plasma glycerol levels", "setting": "[4]; [6]", "value": "≤ 70", "unit": "%"}]}]}
